Paper PMC9505826, “A Peptide Inhibitor of the Human Cytomegalovirus Core Nuclear Egress Complex” (Pharmaceuticals, 2022)

Key:
HFF cells = assay: Neutral Red cytotoxicity assay; format: cell-based, human; details: peptides 0.008 µM to 100 µM, refreshed on day 5, read on day 7 of peptide treatment
Description: HFF cells were cultivated in 96-well plate with a density of 1.35 × 10^4 cells per well and incubated at 37 °C for 24 h. The cultured HFF cells were treated with peptides, at concentrations ranging from 0.008 µM to 100 µM, and incubated at 37 °C. On day 5, peptides were refreshed in the culture media and incubation was continued until day 7. A sample without compound (DMSO) served as a negative control, and a sample with 1 µM staurosporine (STP) as a positive control. On day seven, neutral red solution (40 µg/mL, Sigma Aldrich, N2889) was added to cultivated cells and incubated at 37 °C for […], followed by addition of destaining solution (ethanol/water/acetic acid, 50:49:1). Fluorescence was read at excitation/emission at 560/630 nm to quantify the uptake of neutral red.

HCMV AD169 = format: cell-based, human cytomegalovirus (HCMV strain AD169); details: for EC50: HFFs infected with HCMV AD169, MOI 0.1, peptides refreshed at 2, 5 and 7 d p.i., viral genome equivalents in supernatants at 8 d p.i. by qPCR, % of DMSO control, ± standard deviation, at least three independent experiments, read-out: EC50, antiviral effect; for effect on HCMV infection (in words): HFFs infected with HCMV AD169, qPCR of supernatants, concentrations up to 10 µM
Description: Primary human foreskin fibroblasts (HFFs) were cultivated in minimal essential medium (MEM). Cell culture media were supplemented with 1× GlutaMAXTM (35050038, Thermo Fisher Scientific), […] gentamicin and 10% fetal bovine serum (FBS, F7524, Sigma Aldrich). All cells were incubated at 37 °C, 5% CO2 and 80% humidity. For infection with human cytomegalovirus (HCMV strain AD169), 2 × 10^5 HFFs were seeded in 12-well plates for 1 day (d) prior to infection at a multiplicity of infection (MOI) of 0.1. After 90 min of viral absorption, cells were incubated with peptides in the culture media media, which was supplemented with 2.5% FBS, 1× GlutaMAX^TM and 10 µg/mL gentamicin, at the indicated concentrations at 37 °C for 4–8 days. Viral supernatants were collected at 4, 6 and 8 days post-infection (d.p.i.).
HFFs were seeded in 12-well plates, used for HCMV infection at a MOI of 0.1 and treated with the indicated concentrations of each peptide. […] The supernatants were centrifuged at 1500× g and digested with proteinase K at 56 °C for 1 h to release viral particles. The reactions were stopped at 95 °C for 5 min. The amount of extracellular viral genomic loads was assessed in […] of each sample by real-time PCR (TaqMan-PCR). Two primers, namely 5′CMV ([…]) and 3′CMV ([…]), which anneal to a sequence within the major immediate early gene region of HCMV, were obtained to amplify and quantify the viral genome. In addition, a FAM/TAMRA-labeled probe was used for detection. The viral load of a sample treated with DMSO only served as a negative control. HCMV genome equivalents from peptide-treated viral supernatants were calculated as % of the negative control.

[1] = target: T1, HCMV pUL50–pUL53 interaction (Human cytomegalovirus, UniProt P16791); assay: pUL50-pUL53 inhibition assay (plate-based, anti-His-HRP detection); format: binding; details: peptide serial dilutions starting at 10 µM
T1 construct: Recombinant pUL50 and pUL53 were produced and purified as previously described; made in house
T1 sequence (P16791 1-175): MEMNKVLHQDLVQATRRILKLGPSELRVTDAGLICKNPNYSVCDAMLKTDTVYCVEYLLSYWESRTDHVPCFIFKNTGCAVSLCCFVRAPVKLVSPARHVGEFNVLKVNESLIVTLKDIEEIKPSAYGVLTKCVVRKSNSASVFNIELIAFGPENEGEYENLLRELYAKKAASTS
Description: Inhibition assay. Recombinant pUL50 and pUL53 were produced and purified as previously described. High binding Immulon microtiter plates were coated with 100 µL pUL53 (1 µg/mL) in sodium carbonate buffer pH 9.5, overnight at 4 °C. After blocking with 200 µL 1% BSA in 0.1 M phosphate buffer, pH 7.2, for two hours, plates were incubated with 50 µL peptide in serial dilutions, starting at 10 µM, together with 50 µL His-tagged pUL50 (0.78 µg/mL) for two and a half hours. His-tagged pUL50 was detected using anti-His-HRP (Merck, Darmstadt, Germany, 1:100,000). All proteins and antibodies were in 0.1 M phosphate buffer, pH 7.2, containing 0.1% BSA and 0.01% Tween 20. Plates were washed four times with 0.01% Tween 20 in 0.1 M phosphate buffer, pH 7.2, after each incubation step. Plates were developed with o-phenylenediamine (OPD) (1 mg/mL) in the presence of 0.03% H2O2 for approximately 5 min in the dark. After the reaction was stopped with 50 µL 2 M H2SO4, absorbance was read at 492 nm. IC50 values were determined from the % inhibition data using the program GraphPad. Inhibition was calculated according to the following formula:% Inhibition = [1 − (Asample − Ablank1)/(A100% − Ablank2)] × 100 in which “100%” is a sample without inhibitor, “blank1” is a sample without pUL53, and “blank2” is a sample without pUL53 and without inhibitor.

SMILES	CC50, cytotoxic effect (HFF cells)	EC50 (HCMV AD169)	effect on HCMV infection (in words) (HCMV AD169)	inhibitory effect on the pUL50-pUL53 interaction (in words) [1]
CC[C@H](C)[C@H](NC(=O)[C@H](C)NC(=O)[C@H](CCSC)NC(=O)[C@H](CCCCN)NC(=O)[C@H](CCSC)NC(=O)[C@H](CCSC)NC(=O)[C@H](CC(N)=O)NC(=O)[C@H](CC(C)C)NC(=O)[C@H](Cc1ccc(O)cc1)NC(=O)[C@H](CCCCN)NC(=O)[C@H](CC(C)C)NC(=O)[C@H](CCC(=O)O)NC(=O)[C@H](CC(C)C)NC(=O)[C@H](CCC(=O)O)NC(=O)[C@@H]1CCCN1C(=O)[C@H](Cc1c[nH]cn1)NC(=O)[C@H](CCC(=O)O)NC(=O)[C@H](CCCNC(=N)N)NC(=O)[C@H](Cc1ccccc1)NC(=O)[C@@H](NC(=O)[C@H](CC(=O)O)NC(=O)[C@H](Cc1c[nH]cn1)NC(=O)[C@H](CC(C)C)NC(=O)[C@H](CC(=O)O)NC(=O)[C@H](Cc1c[nH]cn1)NC(=O)[C@H](CC(C)C)NC(=O)[C@@H](NC(=O)[C@H](CC(C)C)NC(C)=O)[C@@H](C)O)[C@@H](C)CC)C(=O)N[C@H](C(N)=O)[C@@H](C)O [Hook peptide]	>100 µM	> 10 µM	no significant effect	
CC[C@H](C)[C@H](NC(=O)[C@H](C)NC(=O)[C@H](CCSC)NC(=O)[C@H](CCCCN)NC(=O)[C@H](CCSC)NC(=O)[C@H](CCSC)NC(=O)[C@H](CC(N)=O)NC(=O)[C@H](CC(C)C)NC(=O)[C@H](Cc1ccc(O)cc1)NC(=O)[C@H](CCCCN)NC(=O)[C@H](CC(C)C)NC(=O)[C@H](CCC(=O)O)NC(=O)[C@H](CC(C)C)NC(=O)[C@H](CCC(=O)O)NC(=O)[C@@H]1CCCN1C(=O)[C@H](Cc1c[nH]cn1)NC(=O)[C@H](CCC(=O)O)NC(=O)[C@H](CCCNC(=N)N)NC(=O)[C@H](Cc1ccccc1)NC(=O)[C@@H](NC(=O)[C@H](CC(=O)O)NC(=O)[C@H](Cc1c[nH]cn1)NC(=O)[C@H](CC(C)C)NC(=O)[C@H](CC(=O)O)NC(=O)[C@H](Cc1c[nH]cn1)NC(=O)[C@H](CC(C)C)NC(=O)[C@@H](NC(=O)[C@H](CC(C)C)NC(=O)COCCOCCNC(=O)[C@@H]1CCCN1C(=O)[C@@H]1CCCN1C(=O)[C@H](CCCNC(=N)N)NC(=O)[C@H](CCCNC(=N)N)NC(=O)[C@H](CCCNC(=N)N)NC(=O)[C@H](CCC(N)=O)NC(=O)[C@H](CCCNC(=N)N)NC(=O)[C@H](CCCNC(=N)N)NC(=O)[C@H](CCCCN)NC(=O)[C@H](CCCCN)NC(=O)[C@H](CCCNC(=N)N)NC(=O)CNC(=O)[C@H](Cc1ccc(O)cc1)NC(=O)COCCOCCNC(=O)[C@H](CCCNC(=N)N)NC(=O)[C@H](CCC(N)=O)NC(=O)[C@H](CCCNC(=N)N)NC(=O)[C@H](CCCNC(=N)N)NC(=O)[C@H](CCCCN)NC(=O)[C@H](CCCNC(=N)N)NC(=O)[C@H](CC(C)C)NC(=O)[C@H](CC(C)C)NC(=O)[C@H](CO)NC(=O)[C@H](CCCNC(=N)N)NC(C)=O)[C@@H](C)O)[C@@H](C)CC)C(=O)N[C@H](C(N)=O)[C@@H](C)O [NLS-CPP-Hook]	44.2 ± 6.9 µM	5.6 ± 0.78 µM		
CC(=O)N[C@@H](CCCNC(=N)N)C(=O)N[C@@H](CO)C(=O)N[C@@H](CC(C)C)C(=O)N[C@@H](CC(C)C)C(=O)N[C@@H](CCCNC(=N)N)C(=O)N[C@@H](CCCCN)C(=O)N[C@@H](CCCNC(=N)N)C(=O)N[C@@H](CCCNC(=N)N)C(=O)N[C@@H](CCC(N)=O)C(=O)N[C@@H](CCCNC(=N)N)C(=O)NCCOCCOCC(=O)N[C@@H](Cc1ccc(O)cc1)C(=O)NCC(=O)N[C@@H](CCCNC(=N)N)C(=O)N[C@@H](CCCCN)C(=O)N[C@@H](CCCCN)C(=O)N[C@@H](CCCNC(=N)N)C(=O)N[C@@H](CCCNC(=N)N)C(=O)N[C@@H](CCC(N)=O)C(=O)N[C@@H](CCCNC(=N)N)C(=O)N[C@@H](CCCNC(=N)N)C(=O)N[C@@H](CCCNC(=N)N)C(=O)N1CCC[C@H]1C(=O)N1CCC[C@H]1C(N)=O [NLS-CPP]			no significant effect	completely inactive
